Results as given in ChEMBL document CHEMBL1201862, “PubChem BioAssay data set” (2004).
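Cultured in 96-well plates, cells were exposed to test compound for 48 hours across five concentrations. Abbreviation: GI50, concentration required for 50% inhibition of growth.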 Activity calls are given as the source filed them. Cut-off read from the data, not from the text of the source: active = GI50 up to about 1.1 µM and inactive = higher. Square brackets hold non-standard residues; d marks the D form. Peptide text beside a SMILES is read from it. * marks the point of attachment. NMeV = CN[C@H](C(=O)O)C(C)C; X28 = COc1ccc(CN*)c(OC)c1; Octanoyl = CCCCCCCC(=O)*; dNMeA = CN[C@H](C)C(=O)O

Tests used:
Assay in all cases: NCI anticancer screen, dose series, 48 h
SK-MEL-2 = test system: SK-MEL-2
HCT-116 = test system: HCT-116
OVCAR-4 = test system: OVCAR-4
SF-295 = test system: SF-295
SK-OV-3 = test system: SK-OV-3
PC-3 = test system: PC-3
HT-29 = test system: HT-29
LOX IMVI = test system: LOX IMVI
HL-60 = test system: HL-60
SN12C = test system: SN12C
COLO 205 = test system: COLO 205
NCI-H226 = test system: NCI-H226
SNB-19 = test system: SNB-19
Hs-578T = test system: Hs-578T
KM12 = test system: KM12
HOP-62 = test system: HOP-62
UO-31 = test system: UO-31
A498 = test system: A498
CCRF-CEM = test system: CCRF-CEM

| SMILES | GI50 (SK-MEL-2) | GI50 (HCT-116) | GI50 (OVCAR-4) | GI50 (SF-295) | GI50 (SK-OV-3) | GI50 (PC-3) | GI50 (HT-29) | GI50 (LOX IMVI) | GI50 (HL-60) | GI50 (SN12C) | GI50 (COLO 205) | GI50 (NCI-H226) | GI50 (SNB-19) | GI50 (Hs-578T) | GI50 (KM12) | GI50 (HOP-62) | GI50 (UO-31) | GI50 (A498) | GI50 (CCRF-CEM) |
| --- | --- | --- | --- | --- | --- | --- | --- | --- | --- | --- | --- | --- | --- | --- | --- | --- | --- | --- | --- |
| CCOC(=O)c1sc2c(c1OC(=O)c1ccc(Cl)cc1Cl)c(=O)n(-c1ccccc1)c(=S)n2-c1ccccc1 | 3.97 µM (inactive) | 8.13 µM (inactive) | 40.6 µM (inactive) | 6.76 µM (inactive) | 5.42 µM (inactive) | 7.08 µM (inactive) | 8.89 µM (inactive) | 20.8 µM (inactive) | 4.29 µM (inactive) | 4.22 µM (inactive) | 3.94 µM (inactive) | 6.73 µM (inactive) | > 24 µM (inactive) | 7.48 µM (inactive) | 5.73 µM (inactive) | 10 µM (inactive) | 13.4 µM (inactive) | 5.08 µM (inactive) | 3.27 µM (inactive) |
| CN1CCN(c2ccc3[nH]c(-c4ccc5[nH]c(CCCc6ccc(N(CCCl)CCCl)cc6)nc5c4)nc3c2)CC1 | > 100 µM (inactive) | > 100 µM (inactive) | > 100 µM (inactive) | > 100 µM (inactive) | > 100 µM (inactive) | > 100 µM (inactive) | 41.7 µM (inactive) | 60.7 µM (inactive) | 62.8 µM (inactive) | > 100 µM (inactive) | > 100 µM (inactive) | > 100 µM (inactive) | > 100 µM (inactive) | 2.09 µM (inactive) | > 100 µM (inactive) | > 100 µM (inactive) | > 100 µM (inactive) | > 100 µM (inactive) | 75.3 µM (inactive) |
| Cc1ccc([N+](=O)[O-])c2c(NCCNC(=O)Cn3ccnc3[N+](=O)[O-])ccnc12 | 43.6 µM (inactive) | 43.7 µM (inactive) | 33.3 µM (inactive) | 20.5 µM (inactive) | 21.6 µM (inactive) | 28.8 µM (inactive) | 32.4 µM (inactive) | 45.8 µM (inactive) | > 100 µM (inactive) | 38.3 µM (inactive) | 41 µM (inactive) | 26.2 µM (inactive) | 28.9 µM (inactive) | 28.3 µM (inactive) | 52.2 µM (inactive) | 20.7 µM (inactive) | > 100 µM (inactive) | 31.6 µM (inactive) | > 100 µM (inactive) |
| CC(=O)c1ccc2c(c1)N(CCCN1CCN(CCO)CC1)c1ccccc1C2 | 18.3 µM (inactive) | 16.3 µM (inactive) | 15.1 µM (inactive) | 17.1 µM (inactive) | 16.3 µM (inactive) | 14.3 µM (inactive) | 10 µM (inactive) | 15.2 µM (inactive) | 13.8 µM (inactive) | 16.9 µM (inactive) | 15.1 µM (inactive) | 14.6 µM (inactive) | 18.9 µM (inactive) | 14.8 µM (inactive) | 15.5 µM (inactive) | 15.3 µM (inactive) | 23.8 µM (inactive) | 15.7 µM (inactive) | 11.7 µM (inactive) |
| CC(=O)OI1NC(=O)c2ccccc21 | > 100 µM (inactive) | > 100 µM (inactive) | > 100 µM (inactive) | > 100 µM (inactive) | > 100 µM (inactive) | > 100 µM (inactive) | > 100 µM (inactive) | > 100 µM (inactive) | > 100 µM (inactive) | > 100 µM (inactive) | > 100 µM (inactive) | > 100 µM (inactive) | > 100 µM (inactive) | > 100 µM (inactive) | > 100 µM (inactive) | > 100 µM (inactive) | > 100 µM (inactive) | > 100 µM (inactive) | 76.7 µM (inactive) |
| CCOC(=O)Cn1nc2ccc(Nc3nc4ccccc4nc3C(=O)OCC)cc2n1 | 54.6 µM (inactive) | 55 µM (inactive) | 42.8 µM (inactive) | 45.1 µM (inactive) | 49.3 µM (inactive) | 98.4 µM (inactive) | 42 µM (inactive) | > 100 µM (inactive) | > 100 µM (inactive) | > 100 µM (inactive) | > 100 µM (inactive) | 59.8 µM (inactive) | 34 µM (inactive) | 33.9 µM (inactive) | > 100 µM (inactive) | 68.7 µM (inactive) | 20.8 µM (inactive) | 60.1 µM (inactive) | > 100 µM (inactive) |
| C=CCN(c1cc(OC)c2[nH]c(C(=O)OCC)c(C)c2c1[N+](=O)[O-])S(C)(=O)=O | 25.1 µM (inactive) | 18.2 µM (inactive) | 32.4 µM (inactive) | 28.5 µM (inactive) | 36.3 µM (inactive) | 18 µM (inactive) | 18.2 µM (inactive) | 19.3 µM (inactive) | 15.8 µM (inactive) | 19.6 µM (inactive) | 15.5 µM (inactive) | 1.04 µM (active) | 28.4 µM (inactive) | 17.8 µM (inactive) | 23.5 µM (inactive) | 35.6 µM (inactive) | 21.5 µM (inactive) | 25.8 µM (inactive) | 26.3 µM (inactive) |
| COc1ccc2[nH]cc(CN3CCC(CO)(c4ccccc4)CC3)c2c1 | 23.2 µM (inactive) | 15 µM (inactive) | 42.2 µM (inactive) | 16.1 µM (inactive) | 0.53 µM (active) | 31.1 µM (inactive) | 23.1 µM (inactive) | 16.8 µM (inactive) | 18.7 µM (inactive) | 72.8 µM (inactive) | 18.3 µM (inactive) | 43.5 µM (inactive) | > 100 µM (inactive) | 25.7 µM (inactive) | 17.9 µM (inactive) | 19.7 µM (inactive) | 22.4 µM (inactive) | 45.8 µM (inactive) | 21.6 µM (inactive) |
| O=C1C2C(c3ccccc3)NC(c3ccccc3)C1C(c1ccccc1)NC2c1ccccc1 (stereo unspecified) | > 100 µM (inactive) | > 100 µM (inactive) | > 100 µM (inactive) | > 100 µM (inactive) | > 100 µM (inactive) | > 100 µM (inactive) | > 100 µM (inactive) | > 100 µM (inactive) | > 100 µM (inactive) | > 100 µM (inactive) | > 100 µM (inactive) | > 100 µM (inactive) | > 100 µM (inactive) | > 100 µM (inactive) | > 100 µM (inactive) | > 100 µM (inactive) | > 100 µM (inactive) | > 100 µM (inactive) | > 100 µM (inactive) |
| O=C(NC1(c2cc3ccccc3s2)CCCCC1)C1CCC1 | > 100 µM (inactive) | > 100 µM (inactive) | 97.5 µM (inactive) | > 100 µM (inactive) | > 100 µM (inactive) | > 100 µM (inactive) | > 100 µM (inactive) | > 100 µM (inactive) | > 100 µM (inactive) | > 100 µM (inactive) | > 100 µM (inactive) | > 100 µM (inactive) | > 100 µM (inactive) | 37.1 µM (inactive) | > 100 µM (inactive) | > 100 µM (inactive) | > 100 µM (inactive) | > 100 µM (inactive) | > 100 µM (inactive) |
| CC(C)CCCC(C)[C@H]1CC[C@H]2N/C(=N/c3ccccc3)CCC[C@]12C (stereo partly specified) | 1.67 µM (inactive) | 2.28 µM (inactive) | 3.56 µM (inactive) | 1.6 µM (inactive) | 2.03 µM (inactive) | 2.97 µM (inactive) | 0.501 µM (active) | 0.863 µM (active) | 1.85 µM (inactive) | 1.77 µM (inactive) | 1.3 µM (inactive) | 1.86 µM (inactive) | 2.89 µM (inactive) | 2.26 µM (inactive) | 2.43 µM (inactive) | 2.52 µM (inactive) | 1.62 µM (inactive) | 3.35 µM (inactive) | 2.51 µM (inactive) |
| CCCCCCCC(=O)N[C@H](C(=O)N[C@H](C(=O)N(C)[C@H](C(=O)N1CCC[C@H]1C(=O)N(C)[C@H](C)C(=O)NCc1ccc(OC)cc1OC)C(C)C)C(C)C)C(C)C (Octanoyl-VV[NMeV]P[dNMeA]-X28) | 12.9 µM (inactive) | 5.93 µM (inactive) | 6.14 µM (inactive) | 7.96 µM (inactive) | 28.9 µM (inactive) | 7.01 µM (inactive) | 4.23 µM (inactive) | 12.2 µM (inactive) | 3.68 µM (inactive) | 18 µM (inactive) | 5.74 µM (inactive) | 4.95 µM (inactive) | 12.7 µM (inactive) | 9.16 µM (inactive) | 4.62 µM (inactive) | 20.4 µM (inactive) | 17.6 µM (inactive) | 1.95 µM (inactive) | 11.5 µM (inactive) |
| C=C1C(=O)O[C@H]2[C@H]1[C@H](OC(=O)/C(C)=C\C)C[C@]1(CO1)[C@@H]1[C@H](OC(C)=O)C=C(C)[C@]21O [EUPAROTIN ACETATE] | 25.5 µM (inactive) | 6.58 µM (inactive) | 32.8 µM (inactive) | > 83.9 µM (inactive) | > 59.6 µM (inactive) | 23.1 µM (inactive) | 12.4 µM (inactive) | 12.7 µM (inactive) | 2.66 µM (inactive) | 14 µM (inactive) | 5.24 µM (inactive) | > 43 µM (inactive) | > 58.5 µM (inactive) | > 56.2 µM (inactive) | 19 µM (inactive) | 74 µM (inactive) | 13.7 µM (inactive) | 1.24 µM (inactive) | 2.36 µM (inactive) |
| C[C@]12CC[C@H]3[C@@H](CC[C@]4(O)C[C@@H](O)CC[C@]34C=O)[C@@]1(O)CC[C@@H]2C1=CC(=O)OC1 [STROPHANTHIDIN] | 1.61 µM (inactive) | 0.259 µM (active) | 0.298 µM (active) | 0.457 µM (active) | 0.568 µM (active) | 0.453 µM (active) | 0.406 µM (active) | 0.453 µM (active) | 0.347 µM (active) | 0.418 µM (active) | 1.36 µM (inactive) | 1.23 µM (inactive) | 1.58 µM (inactive) | 0.682 µM (active) | 1.94 µM (inactive) | 0.159 µM (active) | 0.444 µM (active) | 0.562 µM (active) | 0.488 µM (active) |
